Assay results published in patent publication US20040002052A1, “Systems and methods for rapid evaluation and design of molecules for predicted biological activity” (priority 2001, published 2004).
“Also recorded” adds a separate entry of the source.

Legend:
[1] = tested on: estrogenic activity; assay: uterotrophic assays (estrogenic bioactivity); format: in vivo; conditions: compared with estradiol
[2] = tested on: estrogenic activity; conditions: Medicinal Chemistry Research 10:440-455, 2001; cited from earlier work

CO[C@H]1C[C@]2(C)[C@@H](O)CC[C@H]2[C@H]2[C@H]1c1ccc(O)cc1C[C@H]2C [PDC-7, 11β-Methoxy-7α-Methylestradiol]
biological potency in uterotrophic assays / estrogenic activity [1]: improved biological potency over estradiol; also recorded: potent estrogenic activity
estrogenic bioactivity compared with estradiol [2]: greater estrogenic bioactivity than estradiol
